Results reported in the kinase profiling compilation of Christmann-Franck et al. (2016).

Tests used:
Experiment in all cases: radiometric filter-binding kinase assay, Kinase HotSpot
Conditions in all cases: compound 0.5 µM; ATP 10 µM
[1] = tested on: ARAF (human), P10398 [Y301D/Y302D]
DYRK1B (human) = DYRK1B (human) (UniProt Q9Y463)
PRKCH (human) = PRKCH (human) (UniProt P24723)
LTK (human) = LTK (human) (UniProt P29376)
STK33 (human) = STK33 (human) (UniProt Q9BYT3)
Sequence of STK33 (human) (Q9BYT3 whole entry, looked up): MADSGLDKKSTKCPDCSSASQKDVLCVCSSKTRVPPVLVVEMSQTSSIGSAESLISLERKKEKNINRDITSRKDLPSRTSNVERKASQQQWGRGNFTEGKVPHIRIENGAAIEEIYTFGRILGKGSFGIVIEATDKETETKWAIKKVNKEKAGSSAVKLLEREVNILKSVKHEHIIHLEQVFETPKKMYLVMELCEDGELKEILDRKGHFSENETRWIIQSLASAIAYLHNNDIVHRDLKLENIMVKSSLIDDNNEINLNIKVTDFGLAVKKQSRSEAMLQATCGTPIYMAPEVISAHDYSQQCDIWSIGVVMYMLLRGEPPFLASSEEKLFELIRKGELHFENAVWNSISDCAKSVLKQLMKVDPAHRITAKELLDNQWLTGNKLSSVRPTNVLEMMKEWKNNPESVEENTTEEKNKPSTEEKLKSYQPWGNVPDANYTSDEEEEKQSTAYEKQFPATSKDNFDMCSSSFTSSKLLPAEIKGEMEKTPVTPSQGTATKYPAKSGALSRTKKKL

Sequence of ARAF (human), P10398 [Y301D/Y302D] (P10398 whole entry Y301D/Y302D, looked up): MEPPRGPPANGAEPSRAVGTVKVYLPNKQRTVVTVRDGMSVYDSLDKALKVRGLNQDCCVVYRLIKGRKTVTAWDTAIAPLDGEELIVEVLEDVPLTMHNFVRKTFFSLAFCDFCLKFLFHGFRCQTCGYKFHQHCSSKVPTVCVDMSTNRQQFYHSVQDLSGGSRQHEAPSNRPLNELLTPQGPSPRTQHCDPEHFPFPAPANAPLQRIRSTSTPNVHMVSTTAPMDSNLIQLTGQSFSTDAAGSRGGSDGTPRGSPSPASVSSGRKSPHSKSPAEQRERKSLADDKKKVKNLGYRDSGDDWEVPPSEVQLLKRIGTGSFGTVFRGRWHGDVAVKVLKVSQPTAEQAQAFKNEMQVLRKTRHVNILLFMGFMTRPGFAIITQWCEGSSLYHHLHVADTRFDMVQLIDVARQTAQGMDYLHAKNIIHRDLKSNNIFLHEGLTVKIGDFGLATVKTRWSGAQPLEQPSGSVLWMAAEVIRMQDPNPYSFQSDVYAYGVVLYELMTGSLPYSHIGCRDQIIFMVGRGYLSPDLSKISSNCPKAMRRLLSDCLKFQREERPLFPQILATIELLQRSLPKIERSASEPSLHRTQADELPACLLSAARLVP
Sequence of LTK (human) (P29376 whole entry, looked up): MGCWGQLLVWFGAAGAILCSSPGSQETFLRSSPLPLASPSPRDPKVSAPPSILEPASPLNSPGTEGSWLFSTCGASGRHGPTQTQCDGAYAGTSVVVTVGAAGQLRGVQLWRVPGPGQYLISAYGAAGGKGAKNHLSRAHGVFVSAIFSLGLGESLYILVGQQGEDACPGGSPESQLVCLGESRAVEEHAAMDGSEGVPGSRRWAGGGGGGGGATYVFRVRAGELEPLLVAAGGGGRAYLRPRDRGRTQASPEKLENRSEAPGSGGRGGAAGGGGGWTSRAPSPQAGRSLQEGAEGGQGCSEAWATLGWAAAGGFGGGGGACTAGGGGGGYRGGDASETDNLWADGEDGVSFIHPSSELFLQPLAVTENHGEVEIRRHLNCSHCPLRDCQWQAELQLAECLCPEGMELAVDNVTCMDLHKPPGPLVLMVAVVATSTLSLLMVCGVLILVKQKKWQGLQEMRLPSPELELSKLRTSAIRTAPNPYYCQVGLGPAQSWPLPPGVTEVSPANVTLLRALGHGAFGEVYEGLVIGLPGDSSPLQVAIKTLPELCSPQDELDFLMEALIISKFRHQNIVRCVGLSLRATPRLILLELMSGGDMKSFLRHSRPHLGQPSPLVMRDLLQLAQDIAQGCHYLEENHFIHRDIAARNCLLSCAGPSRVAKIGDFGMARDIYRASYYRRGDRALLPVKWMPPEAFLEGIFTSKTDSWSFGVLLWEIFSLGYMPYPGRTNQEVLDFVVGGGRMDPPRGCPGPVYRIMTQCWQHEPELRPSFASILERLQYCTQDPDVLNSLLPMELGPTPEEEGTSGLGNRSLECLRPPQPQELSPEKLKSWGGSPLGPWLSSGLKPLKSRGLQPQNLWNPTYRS
Sequence of PRKCH (human) (P24723 whole entry, looked up): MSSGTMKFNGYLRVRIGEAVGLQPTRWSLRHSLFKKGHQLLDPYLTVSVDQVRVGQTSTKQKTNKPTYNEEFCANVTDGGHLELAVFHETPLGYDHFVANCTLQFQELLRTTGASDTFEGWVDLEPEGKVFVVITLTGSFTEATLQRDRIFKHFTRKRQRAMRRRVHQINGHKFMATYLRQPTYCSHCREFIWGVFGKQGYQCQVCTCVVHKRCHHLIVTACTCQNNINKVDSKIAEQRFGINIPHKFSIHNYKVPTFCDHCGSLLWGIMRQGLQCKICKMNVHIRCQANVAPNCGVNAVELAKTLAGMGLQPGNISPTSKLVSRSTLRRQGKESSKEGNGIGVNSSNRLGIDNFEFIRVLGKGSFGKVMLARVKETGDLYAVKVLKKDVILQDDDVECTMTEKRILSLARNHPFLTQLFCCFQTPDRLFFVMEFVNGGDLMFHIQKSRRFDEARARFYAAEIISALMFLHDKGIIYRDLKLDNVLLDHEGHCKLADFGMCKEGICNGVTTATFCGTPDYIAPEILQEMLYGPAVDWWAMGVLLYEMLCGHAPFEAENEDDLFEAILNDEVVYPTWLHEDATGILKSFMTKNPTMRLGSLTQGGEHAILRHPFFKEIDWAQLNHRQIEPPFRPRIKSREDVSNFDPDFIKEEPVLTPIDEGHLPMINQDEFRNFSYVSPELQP
Sequence of DYRK1B (human) (Q9Y463 whole entry, looked up): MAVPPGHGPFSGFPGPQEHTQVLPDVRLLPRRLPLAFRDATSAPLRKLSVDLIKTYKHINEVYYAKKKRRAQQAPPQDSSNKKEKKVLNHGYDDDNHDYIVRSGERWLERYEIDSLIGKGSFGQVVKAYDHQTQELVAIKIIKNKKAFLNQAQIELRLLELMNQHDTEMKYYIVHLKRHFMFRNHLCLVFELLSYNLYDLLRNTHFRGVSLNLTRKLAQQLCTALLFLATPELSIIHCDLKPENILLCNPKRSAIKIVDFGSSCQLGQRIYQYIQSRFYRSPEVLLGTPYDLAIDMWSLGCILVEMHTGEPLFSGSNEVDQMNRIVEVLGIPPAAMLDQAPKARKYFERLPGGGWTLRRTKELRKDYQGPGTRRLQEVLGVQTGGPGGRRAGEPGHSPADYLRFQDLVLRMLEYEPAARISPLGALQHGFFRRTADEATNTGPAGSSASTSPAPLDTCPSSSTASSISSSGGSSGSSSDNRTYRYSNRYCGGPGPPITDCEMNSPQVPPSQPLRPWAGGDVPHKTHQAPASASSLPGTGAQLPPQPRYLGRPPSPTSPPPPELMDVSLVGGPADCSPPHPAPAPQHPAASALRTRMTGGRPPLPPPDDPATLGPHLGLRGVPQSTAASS

SMILES | residual activity [1] [%] | further results
Cc1cccc(-c2nc(C(C)(C)C)[nH]c2-c2ccc3c(c2)OCO3)n1 | 99.1 | –
CCOc1cc2ncnc(Nc3cccc(Br)c3)c2cc1OCC | 105 | –
COc1cc2ncnc(Nc3ccc(Oc4ccccc4)cc3)c2cc1OC | 73.3 | –
CN(C)c1ccc(/C=C2\C(=O)Nc3ccccc32)cc1 | 94.3 | –
CC(C)N(CCC(=O)c1ccc2ccccc2c1)Cc1ccccc1 | 104 | –
CCN(CC)CCNC(=O)c1c(C)[nH]c(/C=C2\C(=O)Nc3ccc(Cl)cc32)c1C | 132 | –
Cn1cnc2cc3c(Nc4cccc(Br)c4)ncnc3cc21 | 119 | –
N#CC(C#N)=C(N)/C(C#N)=C/c1ccc(O)cc1 | 90.8 | –
COc1cc2c(Nc3ccc(Br)cc3F)ncnc2cc1OCC1CCN(C)CC1 | 84 | –
Cc1cc(Nc2nc(-c3ccccc3)nc3ccccc23)n[nH]1 | 89.7 | –
N#C/C(=C(/N)Sc1ccc(N)cc1)c1ccccc1C(F)(F)F | 98.8 | –
Cn1sc(=O)n(Cc2ccccc2)c1=O | 94.6 | –
COc1cccc(-c2cc(=O)c3ccccc3o2)c1N | 98.9 | –
CCN(CC)CCNC(=O)c1c(C)[nH]c(/C=C2\C(=O)Nc3ccc(F)cc32)c1C | 124 | –
O=C(Nc1cccc(Nc2nccc(Nc3cccc(C(F)(F)F)c3)n2)c1)C1CC1 | 90.2 | –
N#Cc1c[nH]c2c[nH]/c(=N\Cc3cccnc3)cc2/c1=N\c1ccc(F)c(Cl)c1 | 106 | –
O=C(CCCc1ccc(-c2ccccc2F)cc1)Nc1ccc(O)cc1 | 104 | –
Cc1ccc(Nc2nccc(N(C)c3ccc4c(C)n(C)nc4c3)n2)cc1S(N)(=O)=O | 76.5 | –
CCc1nc(-c2ccc(OC)cc2)[nH]c1-c1ccncc1 | 99.6 | –
CCCCc1c(-c2ccc(O)cc2)[nH]c2nccnc12 | 92.6 | –
Nc1cccc(-c2cc3c(Oc4cccc(O)c4)ncnc3[nH]2)c1 | 57.3 | –
COc1ccc(CNC(=O)Nc2ncc([N+](=O)[O-])s2)cc1 | 91 | –
COc1cc2c(N3CCN(C(=O)Nc4ccc(OC(C)C)cc4)CC3)ncnc2cc1OCCCN1CCCCC1 | 103 | –
COc1ccc2c(c1)/C(=C/c1cnc[nH]1)C(O)=N2 | 111 | –
COc1ccc(COc2ccc(Cc3cnc(N)nc3N)cc2OC)cc1 | 96.6 | –
Cn1c2ccccc2c2c3c(c4c5ccccc5n(CCC#N)c4c21)CNC3=O | 103 | –
C[C@@H]1CCN(C(=O)CC#N)C[C@@H]1N(C)c1ncnc2[nH]ccc12 | 102 | –

SMILES | residual activity [1] [%] | further results
CN(C)CCCn1cc(C2=C(c3c[nH]c4ccccc34)C(=O)NC2=O)c2ccccc21 | 100 | –
CO[C@@H]1[C@H](N(C)C(=O)c2ccccc2)C[C@H]2O[C@]1(C)n1c3ccccc3c3c4c(c5c6ccccc6n2c5c31)C(=O)NC4 | 122 | –
N#Cc1c(NC(=O)c2cccc3ccccc23)sc2c1CCCC2 | 104 | –
N#CCCc1ccc2c(c1)-c1[nH]c3ccc([N+](=O)[O-])cc3c1CC(=O)N2 | 94.5 | –
CCn1cnc2c(Nc3cccc(Cl)c3)nc(N[C@@H]3CCCC[C@@H]3N)nc21 | 116 | –
CN(C)C[C@H]1CCn2c(c(C3=C(c4cn(C)c5ccccc45)C(=O)NC3=O)c3ccccc32)C1 | 109 | –
COC(=O)[C@]1(O)C[C@@H]2O[C@@]1(C)n1c3ccccc3c3c4c(c5c6ccccc6n2c5c31)C(=O)NC4 | – | residual activity (DYRK1B (human)): 3.88%; residual activity (PRKCH (human)): 20.5%; residual activity (LTK (human)): 9.78%; residual activity (STK33 (human)): 12.5%
COc1cc2ncc(-c3ccccc3)nc2cc1OC | 87.6 | –
O=C1NC(=O)/C(=C/c2ccc3c(c2)OC(F)(F)O3)S1 | 104 | –
c1ccc2c(-c3ccncc3)c[nH]c2c1 | 97.7 | –
CS(=O)(=O)CCNCc1ccc(-c2ccc3ncnc(Nc4ccc(OCc5cccc(F)c5)c(Cl)c4)c3c2)o1 | 85 | –
Oc1cccc(-c2nc(N3CCOCC3)c3oc4ncccc4c3n2)c1 | 92 | –
CC(C)[C@H](CO)Nc1nc(Nc2cc(N)cc(Cl)c2)c2ncn(C(C)C)c2n1 | 82.4 | –
Cc1ccc(NC2=CC(=O)c3sc(C)nc3C2=O)cc1 | 127 | –
Nc1ncnc2[nH]nc(Nc3ccc(F)cc3)c12 | 80.7 | –
N#C/C(=C1/Nc2ccccc2S1)c1ccnc(NCCc2cccnc2)n1 | 97.6 | –
CNC(=O)c1cc(Oc2ccc(NC(=O)Nc3ccc(Cl)c(C(F)(F)F)c3)cc2)ccn1 | 7.04 | –
COc1cc2c(cc1OC)-c1[nH]nc(Nc3cccc(F)c3)c1C2 | 98.9 | –
CCN(CC)CCCCN1c2ccccc2Oc2ccc(Cl)cc21 | 103 | –
FC(F)(F)c1ccc(/C=C/c2nc(COc3ccc(CCCCn4ccnn4)cc3)co2)cc1 | 102 | –
COc1ccc(OC)c2c(=S)c3ccccc3[nH]c12 | 122 | –
COc1cc(Nc2c(C#N)cnc3cc(OCCCN4CCN(C)CC4)c(OC)cc23)c(Cl)cc1Cl | 109 | –
COc1cc2ncnc(Nc3cccc(Cl)c3)c2cc1OC | 108 | –
Nc1nccc(-c2c(-c3ccc(F)cc3)ncn2C2CCNCC2)n1 | 93.1 | –
O=c1cc(N2CCOCC2)oc2c(-c3ccccc3)cccc12 | 105 | –
COc1cc2ncnc(N3CCN(C(=O)Nc4ccc(Oc5ccccc5)cc4)CC3)c2cc1OC | 105 | –
O=S(=O)(NCCNC/C=C/c1ccc(Br)cc1)c1cccc2cnccc12 | 95.8 | –

SMILES | residual activity [1] [%] | further results
CC[n+]1c(/C=C/N(C)c2ccccc2)n(-c2ccccc2)c2ccc(-c3nc4ccccc4s3)cc21 | 102 | –
Nc1ncnc2c1cnn2-c1ccccc1 | 99.3 | –
CN(C)S(=O)(=O)c1ccc2c(c1)/C(=C/c1cc3c([nH]1)CCCC3)C(=O)N2 | 105 | –
O=C(Nc1cccc(Nc2cc(Nc3cccc(C(F)(F)F)c3)ncn2)c1)C1CC1 | 95.1 | –
Cc1[nH]c(/C=C2\C(=O)Nc3ccc(S(=O)(=O)N(C)c4cccc(Cl)c4)cc32)c(C)c1C(=O)N1CCN(C)CC1 | 120 | –
c1ccc(-c2n[nH]c3c2oc2ccccc23)cc1 | 93.8 | –
N#C/C(=C\c1ccc(O)c(O)c1)C(=O)NCc1ccccc1 | 95.2 | –
Nc1ncnc2c1c(-c1ccc(Oc3ccccc3)cc1)cn2C1CCCC1 | 53 | –
O=C(O)c1ccc2c3c1cccc3c(=O)n1c3ccccc3nc21 | 101 | –
O=C1NC(=O)c2cc(Nc3ccc(F)cc3)c(Nc3ccc(F)cc3)cc21 | 90.7 | –
O=C(c1cc2cc(O)ccc2[nH]1)c1cc2cc(O)ccc2[nH]1 | 98.6 | –
CC#CC(=O)Nc1cc2c(Nc3ccc(F)c(Cl)c3)ncnc2cn1 | 74.1 | –
O=C1C(Cl)=C(N2C(=O)CCC2=O)C(=O)c2ccccc21 | 105 | –
O=C1Nc2ccc(Br)cc2/C1=C\c1cc2c([nH]1)CCCC2 | 106 | –
O=C1NC(=O)c2c1c1c3ccccc3[nH]c1n1cncc21 | 93.8 | –
CCOC(=O)c1c(C)[nH]c(/C=C2\C(=O)Nc3ccccc32)c1C | 94.7 | –
Nc1nnc2[nH]c3ccccc3nc1-2 | 119 | –
O=C1NC(=O)/C(=C\c2ccc3nccnc3c2)S1 | 103 | –
COc1ccc(Cl)cc1NC(=O)Nc1cc(C)nc2ccccc12 | 92.4 | –
O=C1Nc2ccccc2/C1=C1\Nc2ccccc2\C1=N/O | 100 | –
O=C1Cc2c([nH]c3ccc(Br)cc23)-c2ccccc2N1 | 104 | –
O=c1[nH]c2ccccc2n1C1CCN(Cc2ccc(-c3nc4cc5[nH]cnc5cc4nc3-c3ccccc3)cc2)CC1 | 99.2 | –
O=C1NC(=O)C(c2c[nH]c3ccccc23)=C1c1c[nH]c2ccccc12 | 155 | –
CCC(=O)Nc1ccc2ncnc(Nc3cccc(Br)c3)c2c1 | 93.4 | –
c1ccc(-c2n[nH]cc2-c2ccnc3ccccc23)nc1 | 91.5 | –
